Assay results taken from article PMC9178925 (Biochemical pharmacology, 2022).
“And” between values parts separate entries of the source, which are not always exact repeats. Equal entries are not always repeated. Where two headings read alike, the source gives them in different places.

Experiments:
α1β2γ2S GABAAR = α1β2γ2S GABAAR (Rattus norvegicus, UniProt P62813+P63138); assay type: cell-based, rat (β2 rat or human)
α1β2(N265S)γ2S GABAAR = α1β2(N265S)γ2S GABAAR (Rattus norvegicus, UniProt P62813+P63138, N289S); test: Two-electrode voltage clamp, potentiation of low GABA currents in oocytes; assay type: cell-based, rat (β2 rat or human)
α1β2γ2L GABAAR [1] = molecular target: T1, α1β2γ2L GABAAR (Rattus norvegicus, UniProt P62813+P63138); test: Two-electrode voltage clamp, concentration-response and mechanistic; assay type: cell-based, rat (β2 rat or human)
α1β2γ2L GABAAR [2] = molecular target: T1, α1β2γ2L GABAAR; test: Functional competition assay; conditions: for potentiation of GABA-activated receptors: n = 5 oocytes
α1β1γ2S GABAAR = α1β1γ2S GABAAR (Rattus norvegicus, UniProt P15431+P62813); assay type: cell-based; conditions: 100 μM (+)-catharanthine, % over control EC5 GABA; mean ± SEM
α1β3γ2S GABAAR = α1β3γ2S GABAAR (Rattus norvegicus, UniProt P62813+P63079); assay type: cell-based
α2β1γ2S GABAAR = α2β1γ2S GABAAR (UniProt P15431+P47869); assay type: cell-based, human α2, rat β1 and γ2S; conditions: 100 μM (+)-catharanthine, % over control EC5 GABA; mean ± SEM
α2β3γ2S GABAAR [3] = test: Two-electrode voltage clamp, potentiation of EC5 GABA currents in oocytes; assay type: cell-based, human α2, rat β and γ2S
α2β3γ2S GABAAR [4] = molecular target: α2β3γ2S GABAAR (UniProt P47869+P63079); test: as above; assay type: cell-based, human α2, rat β3 and γ2S
α1β3(M286C)γ2S GABAAR = α1β3(M286C)γ2S GABAAR (Rattus norvegicus, UniProt P62813+P63079, M311C); test: Two-electrode voltage clamp, potentiation of low GABA currents in oocytes; assay type: cell-based; conditions: 100 μM (+)-catharanthine, ~EC5 GABA, n = 5 oocytes
α1β2(N265S)γ2L GABAAR = α1β2(N265S)γ2L GABAAR (Rattus norvegicus, UniProt P62813+P63138, N289S); assay type: cell-based, rat (β2 rat or human); conditions: β2(N265S)
α1β2(R269A)γ2L GABAAR = α1β2(R269A)γ2L GABAAR (Rattus norvegicus, UniProt P62813+P63138, R293A); assay type: cell-based, rat (β2 rat or human); conditions: β2(R269A)
α1β2(K279A)γ2L GABAAR = α1β2(K279A)γ2L GABAAR (Rattus norvegicus, UniProt P62813+P63138, K303A); assay type: cell-based, rat (β2 rat or human); conditions: β2(K279A)
α1β2(D282A)γ2L GABAAR = α1β2(D282A)γ2L GABAAR (Rattus norvegicus, UniProt P62813+P63138, D306A); assay type: cell-based, rat (β2 rat or human); conditions: β2(D282A)
[5] = molecular target: α1β2(K279A+D282A)γ2L GABAAR (Rattus norvegicus, UniProt P62813+P63138, D306A/K303A); assay type: cell-based, rat (β2 rat or human); conditions: β2(K279A+D282A)
α1(Q241L)β2γ2L GABAAR = α1(Q241L)β2γ2L GABAAR (Rattus norvegicus, UniProt P62813+P63138, Q268L); test: Two-electrode voltage clamp, potentiation of low GABA currents in oocytes; assay type: cell-based, rat (β2 rat or human); conditions: 30 μM (+)-catharanthine, 30 μM GABA, n = 6 oocytes
[6] = system: β2/3-containing GABAARs vs β1-containing GABAARs; test: GABAAR subtype selectivity of potentiation; assay type: cell-based; conditions: low, subsaturating GABA
[7] = 100 μM (+)-catharanthine, % over control EC5 GABA, mean ± SEM
[8] = 100 μM (+)-catharanthine, ~EC5 GABA
[9] = read-out: KCath (estimated affinity of (+)-catharanthine for the resting receptor), low GABA (PA ~0.2), Eq. 1, NCath = 2, mean ± SEM, 5 oocytes
[10] = calculated from cCath, NCath = 2
[11] = low GABA (PA ~0.2), Eq. 1, NCath = 2
[12] = absence of GABA, Hill equation fit
[13] = 1 μM R(+)-etomidate + 10 μM (+)-catharanthine
[14] = GABA + 3 μM loreclezole + 30 μM (+)-catharanthine

With `Cl/C(=C\n1cncn1)c1ccc(Cl)cc1Cl` [loreclezole, reference compound] the “potentiation of the responses to low GABA” value (α1β2γ2S GABAAR; 10 μM loreclezole, n = 5 oocytes) was 269 ± 46%, the “potentiation of the responses to low GABA” value (α1β2(N265S)γ2S GABAAR; 10 μM loreclezole, n = 4 oocytes) was 36 ± 6% and the EC50 (α1β2γ2L GABAAR [1]) was 3.4 ± 0.6 µM. The Kd (α1β2γ2L GABAAR [1]) was 7.1 ± 2 µM, the cLor (α1β2γ2L GABAAR [1]; 10 μM GABA, Eq. 1, n = 6 oocytes) was 0.251 ± 0.049 and 0.251 and the nH (α1β2γ2L GABAAR [1]; loreclezole, 10 μM GABA, Hill equation) was 1.27 ± 0.41. The “potentiation of the peak response to GABA” value (α1β2γ2L GABAAR [2]; 10 μM loreclezole, 0.75 μM GABA) was 643 ± 91%, the “enhancement of the peak response from receptors activated by R(+)-etomidate” value (α1β2γ2L GABAAR [2]; 10 μM loreclezole, 1 μM R(+)-etomidate) was 395 ± 48% and the “PA of the peak response” value (α1β2γ2L GABAAR [2]; 0.2–0.5 μM GABA + 3 μM loreclezole) was 0.08 ± 0.05.
With `CCC1=C[C@@H]2CN3CCc4c([nH]c5ccccc45)[C@@](C(=O)OC)(C2)[C@@H]13` [(+)-catharanthine, (+)-3,4-didehydrocoronaridine] the “(+)-Catharanthine maximal potentiation (%)” value (α1β1γ2S GABAAR) was 269 ± 42 (4) %, the “(+)-Catharanthine maximal potentiation (%)” value (α1β2γ2S GABAAR; [7]) was 739 ± 110 (11) % and the “potentiation of the response to low GABA” value (α1β2γ2S GABAAR; [8]) was 1099 ± 163%. For the same molecule, the “(+)-Catharanthine relative potentiation (αxβ2/3γ2S)/(αxβ1γ2S)” value (“(+)-Catharanthine relative potentiation” for short) (α1β2γ2S GABAAR; α1β2γ2S vs α1β1γ2S, 100 μM) was 2.7, the “(+)-Catharanthine maximal potentiation (%)” value (α1β3γ2S GABAAR; [7]) was 646 ± 64 (10) % and the “potentiation of the response to low GABA” value (α1β3γ2S GABAAR; 100 μM (+)-catharanthine, ~EC5 GABA, n = 6 oocytes) was 667 ± 111%. For the same molecule, the “(+)-Catharanthine relative potentiation” value (α1β3γ2S GABAAR; α1β3γ2S vs α1β1γ2S, 100 μM) was 2.4, the “(+)-Catharanthine maximal potentiation (%)” value (α2β1γ2S GABAAR) was 211 ± 26 (5) % and the “(+)-Catharanthine maximal potentiation (%)” value (α2β3γ2S GABAAR [3]; 100 μM (+)-catharanthine, % over control EC5 GABA, first line printed α2β3γ2S) was 691 ± 65 (5) %. The “(+)-Catharanthine relative potentiation” value (α2β3γ2S GABAAR [3]; first line printed α2β3γ2S vs α2β1γ2S, 100 μM) was 3.3, the “(+)-Catharanthine maximal potentiation (%)” value (α2β3γ2S GABAAR [4]; 100 μM (+)-catharanthine, % over control EC5 GABA, second line printed α2β3γ2S) was 728 ± 120 (4) % and the “(+)-Catharanthine relative potentiation” value (α2β3γ2S GABAAR [4]; second line printed α2β3γ2S vs α2β1γ2S, 100 μM) was 3.5. For the same molecule, the “potentiation of the response to low GABA” value (α1β3(M286C)γ2S GABAAR) was 651 ± 115%, the “potentiation of the response to low GABA” value (α1β2(N265S)γ2S GABAAR; [8]) was 224 ± 13% and the “maximal efficacy [(PAmax/PAmin)-1 × 100] / maximum potentiation” value (α1β2γ2L GABAAR [1]; 2 μM GABA, Hill equation fit, % of control) was 341%. For the same molecule, the “potentiation of GABA-evoked currents” value (α1β2γ2L GABAAR [1]; 30 μM (+)-catharanthine, 2 μM GABA, n = 6 oocytes) was 372 ± 72%, the EC50 (α1β2γ2L GABAAR [1]; read-out: EC50 for potentiation, wild-type, 2 μM GABA, Hill equation fit) was 13.5 ± 1.8 µM and the Kd (α1β2γ2L GABAAR [1]; read-out: KCath (estimated affinity of (+)-catharanthine for the resting receptor), wild-type, 2 μM GABA background, fit to Eq. 1, NCath constrained to 2, mean ± SEM, 5 oocytes) was 29.4 ± 6 µM. The “cCath (ratio of the affinities for the active and resting states)” value (α1β2γ2L GABAAR [1]; wild-type, 2 μM GABA background, fit to Eq. 1, NCath constrained to 2) was 0.231 and 0.231±0.023, the “nH (Hill coefficient)” value (α1β2γ2L GABAAR [1]; wild-type, 2 μM GABA, Hill equation fit) was 1.66 and 1.66±0.33 and the “ΔG (free energy change to stabilize the active state)” value (α1β2γ2L GABAAR [1]; wild-type, calculated from cCath as NCathRTln(cCath), NCath = 2) was -1.76 kcal/mol and -1.76 ± 0.12 kcal/mol. For the same molecule, the Kd (α1β2(N265S)γ2L GABAAR; [9]) was 23.9 ± 2.5 µM, the ΔG (α1β2(N265S)γ2L GABAAR; [10]) was -1.12 ± 0.07 kcal/mol and the “cCath (ratio of the affinities for the active and resting states)” value (α1β2(N265S)γ2L GABAAR; [11]) was 0.390±0.021. The EC50 (α1β2(N265S)γ2L GABAAR; low GABA, Hill equation fit) was 17.7 ± 1.4 µM, the nH (α1β2(N265S)γ2L GABAAR; low GABA, Hill equation fit) was 1.53±0.13 and the Kd (α1β2(R269A)γ2L GABAAR; [9]) was 18.8 ± 3.3 µM. For the same molecule, the ΔG (α1β2(R269A)γ2L GABAAR; [10]) was -1.53 ± 0.11 kcal/mol, the “cCath (ratio of the affinities for the active and resting states)” value (α1β2(R269A)γ2L GABAAR; [11]) was 0.279±0.022 and the EC50 (α1β2(R269A)γ2L GABAAR; low GABA, Hill equation fit) was 9.3 ± 1.2 µM. The nH (α1β2(R269A)γ2L GABAAR; low GABA, Hill equation fit) was 1.29±0.10, the Kd (α1β2(K279A)γ2L GABAAR; read-out: KCath (estimated affinity of (+)-catharanthine for the resting receptor), direct activation in the absence of GABA (PA,constitutive 0.22), Eq. 1, NCath = 2, 5 oocytes) was 17.8 ± 1.6 µM and the “cCath (ratio of the affinities for the active and resting states)” value (α1β2(K279A)γ2L GABAAR; absence of GABA, Eq. 1, NCath = 2) was 0.421±0.034. It also gave an EC50 (α1β2(K279A)γ2L GABAAR; [12]) of 13.6 ± 2 µM, a nH (α1β2(K279A)γ2L GABAAR; [12]) of 1.08±0.11 and a ΔG (α1β2(K279A)γ2L GABAAR; [10]) of -1.04 ± 0.10 kcal/mol. For the same molecule, the Kd (α1β2(D282A)γ2L GABAAR; [9]) was 7.1 ± 2.8 µM, the ΔG (α1β2(D282A)γ2L GABAAR; [10]) was -0.55 ± 0.07 kcal/mol and the “cCath (ratio of the affinities for the active and resting states)” value (α1β2(D282A)γ2L GABAAR; [11]) was 0.630±0.039. The EC50 (α1β2(D282A)γ2L GABAAR; low GABA, Hill equation fit) was 7.7 ± 1.6 µM, the nH (α1β2(D282A)γ2L GABAAR; low GABA, Hill equation fit) was 1.88±0.39 and the ΔG [5, 10] was −0.19 ± 0.01 kcal/mol and −0.19±0.01nd kcal/mol. The “cCath (ratio of the affinities for the active and resting states)” value ([5]; pooled data, best-fit ± standard error of the fit) was 0.848±0.010nd, the EC50 ([5]; pooled data, Hill equation fit) was 15.8 ± 5.9 µM and the nH ([5]; pooled data, Hill equation fit) was 1.30. For the same molecule, the “potentiation of GABA-evoked currents” value (α1(Q241L)β2γ2L GABAAR) was 231 ± 33%, the “efficacy of potentiation at β2/3-containing relative to β1-containing GABAARs” value [6] was 2.4–3.5 times and the “predicted PA, model with overlapping sites (Eq. 2)” value (α1β2γ2L GABAAR [2]; [13]) was 0.024 ± 0.006. The “predicted PA, model with unique non-overlapping sites (Eq. 1)” value (α1β2γ2L GABAAR [2]; [13]) was 0.115 ± 0.031, the “PA of peak response, observed” value (α1β2γ2L GABAAR [2]; 10 μM (+)-catharanthine coapplied with 1 μM R(+)-etomidate, 7 oocytes) was 0.086 ± 0.024 and the “potentiation of GABA-activated receptors” value (α1β2γ2L GABAAR [2]; 10 μM (+)-catharanthine, 0.05 μM GABA) was 1600 ± 400%. The “potentiation of the peak response elicited by R(+)-etomidate” value (α1β2γ2L GABAAR [2]; 10 μM (+)-catharanthine, 1 μM R(+)-etomidate, n = 7 oocytes) was 160 ± 24%, the “potentiation of the peak response to pregnanolone” value (α1β2γ2L GABAAR [2]; 10 μM (+)-catharanthine, 2 μM pregnanolone, five oocytes) was 2200 ± 400% and the “potentiation of GABA-activated receptors” value (α1β2γ2L GABAAR [2]; 10 μM (+)-catharanthine, 1–2 μM GABA) was 353 ± 68%. The “PA of the peak response, observed” value (α1β2γ2L GABAAR [2]; 0.2–0.5 μM GABA + 3 μM loreclezole + 30 μM (+)-catharanthine) was 0.21 ± 0.13, the “PA of the peak response” value (α1β2γ2L GABAAR [2]; 0.2–0.5 μM GABA + 30 μM (+)-catharanthine) was 0.16 ± 0.11 and the “predicted PA, distinct site model” value (α1β2γ2L GABAAR [2]; [14]) was 0.62 ± 0.17. For the same molecule, the “predicted PA, same site model” value (α1β2γ2L GABAAR [2]; [14]) was 0.19 ± 0.11.
